# Reference: PubChem BioAssay AID2305 (GlaxoSmithKline (GSK), 2010)
# System: P. falciparum 3D7 growth, pLDH absorbance
# Assay: P. falciparum 3D7 growth inhibition, dose response, strain 3D7 (AID 2305)
row,SMILES,IC50
1,O=C(Nc1ccc(CCNCCCc2ccccc2)cc1)Nc1ccc(Cl)c(Cl)c1,270 nM
2,CC[C@H](C)CNC(=O)c1ccnc(-c2cccc(CN(C)C3CCN(C)CC3)c2)c1,900 nM
3,Cc1ccc(NC(=O)Nc2ccccc2)cc1-c1ccc(C(=O)Nc2ccncc2)cc1,240 nM
4,Cc1cc(=O)c(-c2ccc(OCc3ccc(OC(F)(F)F)cc3)cc2)c(C)[nH]1,740 nM
5,CCn1c(=O)c(C(=O)Nc2cc(Cl)c(OC)cc2OC)nc2ccccc21,240 nM
6,O=C(NCc1ccc(S(=O)(=O)N2CCC(CN3CCC(c4c[nH]c5ccccc45)CC3)CC2)s1)c1ccccc1,840 nM
7,O=C(O)c1cc(C(F)(F)F)co1,830 nM
8,Cc1[nH]c(C)c(-c2cccc(-c3ccc(OC(F)(F)F)cc3)c2)c(=O)c1Br,410 nM
9,COc1ccc(C(=O)[C@H]2C[C@@H]2CN(C)CCC(O)c2ccc(Cl)c(Cl)c2)cc1 (some centres undefined),870 nM
10,Cc1ccc(NC(=O)c2ccc(CN3CCCN(Cc4cccc(O)c4)CC3)cc2)cc1F,590 nM
11,COc1ccc2c(c1)nc(CN=C(N)N)n2Cc1ccc(Cl)cc1,360 nM
12,COc1cc(Cc2cnc(N)nc2N)ccc1OCc1ccc(F)c(F)c1,910 nM
13,S=C(NCCc1ccccc1)Nc1ccc2ncsc2c1,1400 nM
14,CCN(CCCN1CCCCC1)c1cc(C)nc(Nc2cc(Cl)ccc2C)n1,630 nM
15,Nc1ncc(-c2ccsc2)c2ccc(-c3cc(NCc4ccccc4)ncn3)cc12,860 nM
16,COc1ccc2nccc([C@@H](O)CN3CCC(NC[C@H](Cc4ccccc4)NC(=O)OC(C)(C)C)CC3)c2c1,230 nM
17,CN1CCN(CCCNCc2cccc(Nc3nccc(Nc4ccc(Oc5ccccc5)cc4)n3)c2)CC1,760 nM
18,CN(C)C(CNc1ncnc2cc(Cl)ccc12)Cc1ccccc1 (centres undefined),870 nM
19,CCCNC(=O)C1CCN(C(c2ccccc2)c2ccc(Cl)c(Cl)c2)CC1 (centres undefined),710 nM
20,COc1ccc(C2(CNCC(O)c3cccc([N+](=O)[O-])c3)CCCC2)cc1OC (centres undefined),890 nM
21,CNC(=O)NC1CCN(Cc2c(-c3cccs3)nc3ccccc3c2C(=O)N[C@@H](C)C2CCCCC2)CC1,220 nM
22,CCN(c1ccccc1)S(=O)(=O)c1ccc(NC(=O)c2cc(-c3cc(C)ccc3O)n[nH]2)cc1,770 nM
23,O=C(NC=Nc1cc([N+](=O)[O-])c(-c2cccnc2)n1-c1ccc(O)cc1)c1ccccc1,300 nM
24,COCCCNC(=O)c1ccc(O)c(-c2cc(Cl)cc(Cl)c2)c1,920 nM
25,COc1ccc2nccc([C@@H](O)CN3CCC(NS(=O)(=O)c4cc(Br)c(Br)s4)CC3)c2c1,850 nM

row,SMILES,IC50
1,Cc1nc(N)nc(N)c1-c1ccc(Br)c(Br)c1,50 nM
2,O=C1Nc2cccc3c2C1(CCCCN1CC=C(c2c[nH]c4ncccc24)CC1)CCC3 (centres undefined),400 nM
3,Cc1noc(C)c1-c1cccc(CNCc2cccc(-c3cccc(-c4nc5ccc(C(F)(F)F)cc5[nH]4)c3)c2)c1,460 nM
4,CSc1nc2nc(C)c(Cc3cccc(F)c3)c(C)n2n1,900 nM
5,COc1cc(Nc2ccnc3cc(-c4nccs4)ccc23)ccc1OCCCc1nc2ccccc2[nH]1,240 nM
6,O=C(c1cc(C(=O)Nc2ccccc2)c(=O)n(-c2ccccc2)c1)c1cc(Cl)ccc1O,390 nM
7,CC(C)CNCc1ccc(-c2cccc(CN(C(=O)Nc3ccccc3)C3CCN(Cc4ccccc4)CC3)c2)cc1,410 nM
8,Cc1ccc(Cn2nc(Cl)c(N3CCNCC3)cc2=O)cc1NC(=O)Nc1ccc(-c2ccccc2)cc1,680 nM
9,COc1ccc2nccc(N3CCC(CCNCc4ccc5c(n4)NC(=O)CS5)CC3)c2c1,210 nM
10,O=C(NC1CCCCC1)N(Cc1ccc(-c2cccc(CNC3CCCC3)c2)cc1)C1CCN(Cc2ccccc2)CC1,780 nM
11,NC(N)=NN=Cc1c2ccccc2c(Cl)c2cc(Cl)ccc12,790 nM
12,COc1ccc(-c2ccc(CNC3Cc4ccccc4C3)cc2)cc1S(=O)(=O)NCCN1CCCC1,800 nM
13,Cc1cnn(-c2cccc(C(=O)NC3CCC(CCN4CCc5ccc(C#N)cc5CC4)CC3)c2)c1 (centres undefined),930 nM
14,CN(C)CCOc1ccc(NC(=O)Nc2ccnc3c(Br)cccc23)cc1Cl,840 nM
15,Cc1cc(C2CCN(CCCCNC(=O)c3ccc(NC(=O)c4ccc(Cl)cc4)cc3)CC2)c(C)cc1OCc1nccn1C,830 nM
16,CCOC(=O)c1ccc(NC(=O)N(Cc2ccc(-c3cccc(CN4CCNCC4)c3)cc2)C2CCN(Cc3ccccc3)CC2)cc1,750 nM
17,COc1ccc2nccc([C@@H](O)CN3CCC(NC(=O)c4nc(Cl)c(Cl)c(N)c4Cl)CC3)c2c1,1300 nM
18,CCCCCCCC1=NN2C(=N)C(=Cc3cc(Br)c(OCc4ccc(F)cc4)c(OCC)c3)C(=O)N=C2S1,1050 nM
19,Cc1ccc2nc(-c3ccccc3Nc3ccnc4cc(-c5nccs5)ccc34)[nH]c2c1,190 nM
20,Cc1cccc2[nH]c(-c3ccc(-c4cccc(CN5CCCC(O)C5)c4)s3)nc12 (centres undefined),940 nM
21,Nc1cccc(-c2ccc3ccnc(N)c3c2)c1,800 nM
22,O=C(CSc1n[nH]c(=O)n1Cc1ccccc1)Nc1ccccc1-c1ccccc1,950 nM
23,CCN(CC)CCN(Cc1ccc(-c2ccc(C(F)(F)F)cc2)cc1)C(=O)Cn1c(CCc2ccc(F)c(F)c2)cc(=O)c2ccccc21,890 nM
24,N/C(=N/C(=NCCCCCCN=C(/N=C(/N)Nc1ccc(Cl)cc1)N1CCOCC1)N1CCOCC1)Nc1ccc(Cl)cc1,710 nM
25,CC1(C)N=C(NC(=O)Nc2ccc([N+](=O)[O-])cc2)N=C(N)N1OCc1cccc2ccccc12,60 nM

row,SMILES,IC50
1,COc1cc(OC)c2c(C)cc(NCCCn3ccnc3)nc2c1,800 nM
2,NC(N)=NC(=O)Nc1ccc(Cl)c(Cl)c1,1040 nM
3,CC(C)OC(=O)c1ccccc1S(N)(=O)=O,670 nM
4,Cc1cc(-c2ccc(CNC3Cc4ccccc4C3)cc2)ccc1S(=O)(=O)NCCN1CCCC1,700 nM
5,O=C(Nc1ccccc1)Nc1cccc(-c2cc(CNCCc3ccccc3)sc2-c2ccncc2)c1,600 nM
6,FC(F)(F)c1ccc2nc(-c3cccc(-c4ccc(CNCCN5CCNCC5)cc4)c3)[nH]c2c1,860 nM
7,Cc1cc(NC2CCCC2)nc(Nc2ccccc2C)n1,1350 nM
8,Nc1ccc(-c2nc3ccc(-c4ccc5nc(-c6ccc(N)cc6)[nH]c5c4)cc3[nH]2)cc1,130 nM
9,O=C(Nc1ccc(OC2CCN(Cc3ccsc3)C2)c(Cl)c1)c1ccsc1 (centres undefined),1020 nM
10,COc1cc2nc(C)nc(Nc3ccc(Oc4ccccc4)cc3)c2cc1OC,720 nM
11,O=C(Nc1ccccc1)Nc1cccc(-c2cccc(-c3nc4ccc(F)cc4[nH]3)c2)c1,180 nM
12,CCOC(=O)N1CCN(CCCNc2c3ccc(Cl)cc3nc3ccc(OC)cc23)CC1,100 nM
13,CCOCc1cn(CC(=O)c2ccc(-c3ccccc3)cc2)c(C)nc1=N,320 nM
14,CC(C)C(NC(=O)c1c(F)cccc1F)C(=O)Nc1ccc(Cc2nc3ccccc3s2)cc1 (centres undefined),450 nM
15,Cc1nnc2c(NC(=O)NC3CCCC3)cc3ccc(-c4cccc(CN(C)C)c4)cc3n12,1160 nM
16,CN(Cc1ccc(NC(=O)CCC2CCN(C(=O)/C=C/c3ccc(Cl)c(Cl)c3)CC2)cc1)C1CCOCC1,1730 nM
17,COc1cc(NC(=O)c2sc(-c3ccc(Cl)cc3)cc2NC(=O)c2cccnc2)ccc1OCCN1CCCC1,380 nM
18,Cc1ccc(-c2nc(N3CCN(C(=O)c4ccco4)CC3)c3ccccc3n2)cc1,970 nM
19,Cc1ccc(S(=O)(=O)N2CCCN(C(=O)c3cc(-c4ccccc4)n[nH]3)CC2)cc1,80 nM
20,COc1ccc(CCN(C)CCCCNC(=O)c2ccc(NC(=O)c3ccc(Cl)cc3)cc2)c(OC)c1,920 nM
21,O=C(c1ccc(-c2ccc(Cl)cc2)o1)N1CCc2cc3nccc(N4CCN5CCC[C@H]5C4)c3cc21,170 nM
22,O=C(Nc1ccc(Cl)cc1)c1cc(Cl)cc2[nH]c(C(F)(F)F)nc12,130 nM
23,Cc1[nH]c(C)c(-c2ccc(Oc3cccc(OC(F)(F)F)c3)cc2)c(=O)c1Br,20 nM
24,O=C(Nc1cccc(CN2CCN(Cc3ccc(O)cc3)CC2)c1)c1cc2ccccc2o1,1180 nM
25,Cc1cc(NCc2ccc(F)cc2)nc2cc(O)ccc12,760 nM

row,SMILES,IC50
1,COc1cc2ncnc(Nc3ccc(Br)c(Cl)c3)c2cc1OC,720 nM
2,COc1ccc2nccc(NC(=O)CNCc3ccc(-c4ccccc4)cc3)c2c1,770 nM
3,O=C(N[C@@H](Cc1ccccc1)C(=O)NC1CCCc2ccccc21)c1ccc(O)c(-c2cccc(C(F)(F)F)c2)c1 (some centres undefined),1000 nM
4,CCCC(C)Nc1nc(C)cc(N[C@@H](Cc2ccccc2)C(=O)Nc2ccccc2)n1 (some centres undefined),860 nM
5,COc1cccc(NC(=O)Nc2cc(-c3ccc4[nH]ncc4c3)cc3c2CNC3=O)c1,120 nM
6,O=C(Nc1ccncc1)c1cc(C(=O)Nc2ccncc2)cc([N+](=O)[O-])c1,610 nM
7,Cc1cccc2[nH]c(-c3cccc(-c4ccc(NC(=O)NC(C)C)cc4)c3)nc12,750 nM
8,CCN(CCCN1CCCCC1)c1cc(C)nc(Nc2cccc(C(F)(F)F)c2C)n1,610 nM
9,O=C(NCCCCCN1CCC(c2c[nH]c3ccccc23)CC1)Nc1cccc(C(F)(F)F)c1,1000 nM
10,COc1cccc(OC2CCN(C(=O)c3cc(C(C)(C)C)nn3Cc3ccccc3)CC2)c1,250 nM
11,Cc1ccc(-n2nc(-c3ccccc3)c3cc(C(=O)NCCN)sc32)cc1,1370 nM
12,CCC[C@@H]([C@@H](CC1CCC(C)CC1)C(=O)N[C@@H](CCCNc1ncccn1)C(=O)Nc1nccs1)N(O)C=O (some centres undefined),190 nM
13,C=CCOc1ccccc1CNCC(O)c1cc(Br)cs1 (centres undefined),330 nM
14,CN1CCCN(Cc2ccc(-c3ccc(NC(=O)c4cccc(Cl)c4)cc3)cc2)CC1,860 nM
15,CC(C)NCc1ccc(-c2cccc(NC(=O)c3ccc(C#N)cc3)c2)cc1,740 nM
16,COc1ccc(Cl)cc1-c1nc(C(=O)NCCN2CCCCC2)c(C)s1,940 nM
17,CC(C)n1ncc2c3c(N)nc(N)nc3ccc21,330 nM
18,N#Cc1cc([N+](=O)[O-])ccc1-n1nc(C(N)=O)n(Cc2cccc(F)c2)c1=S,720 nM
19,CCCC1(NC[C@@H](O)[C@H](Cc2ccccc2)NC(=O)c2cc(NCC)cc(N3CCCCS3(=O)=O)c2)CCC1,720 nM
20,Cc1cc(CN2CC[C@H](NC(=O)c3ccc(Cl)c(Cl)c3)C2)ccc1OC1CCN(C)C1 (some centres undefined),950 nM
21,O=C(c1ccc([N+](=O)[O-])o1)N1CCN(c2nc3c(F)cc(F)cc3s2)CC1,970 nM
22,Cc1ccnc(NC(c2cccc(OCc3ccccc3)c2)c2ccc3cccnc3c2O)c1 (centres undefined),860 nM
23,CCNc1cc(CCCC(=O)OCC)nc(Nc2ccc(C)cc2)n1,770 nM
24,O=C(Nc1nc2cc(S(=O)(=O)NCCCN3CCOCC3)ccc2n1CCCn1ccnc1)c1ccc(Cl)cc1,930 nM
